From ChEMBL document CHEMBL1201862, “PubChem BioAssay data set” (2004)
Calls of active or inactive are those of the source. Cut-off read from the data, not from the text of the source, for most assays here: actives have a measured EC50 and inactives only a lower limit.

Experiments:
[1] = NIH3T3 cell viability loss – ATP luminescence, mouse fibroblasts, counter-screen, dose response (AID 2010); format: functional, cell-based;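 note: cells exposed to compound for about 90 hours before reading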
[2] = biological target: Luciferin 4-monooxygenase (Photinus pyralis, UniProt P08659); assay: inhibition of purified Photinus pyralis luciferase – biochemical, luminescence, dose response (AID 1891)
[3] = Trypanosoma cruzi growth suppression in host cells – NIH3T3 host cells, beta-gal luminescence, confirmation (AID 2044); format: functional, cell-based;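 note: intracellular parasites grown in NIH/3T3 mouse fibroblasts as host cells; luminescent beta-galactosidase reporter signal from transgenic T. cruzi replicating inside host cells; inhibitors lower the luminescence signal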
[4] = Luminescence Cell-Based Dose Confirmation HTS to Identify Inhibitors of Platelet Dense Granule Release. [Related pubchem assays: 1663 (Primary HTS), 1678 (Summary of Project)]; format: functional
Cytochrome P450 2C9 = Cytochrome P450 2C9 (Homo sapiens, UniProt P11712)
[5] = luciferase reporter signal suppression in cells – H4 neuroglioma cells, luminescence, dose response (AID 1990); format: functional, cell-based
[6] = alpha-synuclein stem-loop luciferase translation blockers – H4 neuroglioma cells, luminescence, confirmation (AID 1988); format: functional, cell-based
[7] = Luminescence Cell-Based Dose Response HTS to Identify Inhibitors of 5'UTR Stem-Loop Driven Prion Protein mRNA Translation in H4 Neuroglioblastoma Cells. [Related pubchem assays: 1827 (Project Summary), 1813 (Primary HTS)]; format: functional
[8] = biological target: T1, Corticotropin-releasing factor receptor 2/Corticotropin-releasing factor-binding protein (Homo sapiens, UniProt P24387+Q13324); assay: activators of CRF receptor 2 with binding protein – uHTS hits, confirmation (AID 602473); format: functional; conditions: read-out: EC50_Mean
T1 sequence (Q13324 whole entry): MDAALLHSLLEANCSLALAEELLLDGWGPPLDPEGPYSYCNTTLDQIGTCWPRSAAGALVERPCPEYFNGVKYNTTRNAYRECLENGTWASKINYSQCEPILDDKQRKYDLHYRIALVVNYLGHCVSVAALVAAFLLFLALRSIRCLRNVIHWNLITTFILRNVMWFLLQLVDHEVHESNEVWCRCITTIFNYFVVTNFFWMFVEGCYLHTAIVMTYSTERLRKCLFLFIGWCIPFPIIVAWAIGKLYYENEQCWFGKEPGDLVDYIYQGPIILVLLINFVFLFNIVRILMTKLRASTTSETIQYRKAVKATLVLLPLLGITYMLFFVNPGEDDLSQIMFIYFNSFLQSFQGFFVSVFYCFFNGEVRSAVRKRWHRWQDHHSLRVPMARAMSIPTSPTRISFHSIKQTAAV
T1 sequence (P24387 whole entry): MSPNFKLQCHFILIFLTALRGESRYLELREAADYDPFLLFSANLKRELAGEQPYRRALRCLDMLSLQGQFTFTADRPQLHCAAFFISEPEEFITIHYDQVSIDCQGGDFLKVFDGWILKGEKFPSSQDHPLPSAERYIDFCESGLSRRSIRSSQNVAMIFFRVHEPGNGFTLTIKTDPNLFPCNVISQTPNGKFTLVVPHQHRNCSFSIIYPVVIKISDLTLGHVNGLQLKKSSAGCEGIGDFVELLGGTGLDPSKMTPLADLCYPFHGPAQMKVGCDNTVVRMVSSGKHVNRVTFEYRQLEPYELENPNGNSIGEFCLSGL

[9] = biological target: T2, RNA-binding protein pos-1 (Caenorhabditis elegans, UniProt G5EF15); assay: disruptors of C. elegans POS-1 RNA interaction – biochemical, fluorescence polarization, dose response (AID 1964);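 note: purified POS-1 fused to maltose binding protein made in E. coli; potency of compounds blocking POS-1 binding to fluorescent RNA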
T2 sequence (G5EF15 whole entry): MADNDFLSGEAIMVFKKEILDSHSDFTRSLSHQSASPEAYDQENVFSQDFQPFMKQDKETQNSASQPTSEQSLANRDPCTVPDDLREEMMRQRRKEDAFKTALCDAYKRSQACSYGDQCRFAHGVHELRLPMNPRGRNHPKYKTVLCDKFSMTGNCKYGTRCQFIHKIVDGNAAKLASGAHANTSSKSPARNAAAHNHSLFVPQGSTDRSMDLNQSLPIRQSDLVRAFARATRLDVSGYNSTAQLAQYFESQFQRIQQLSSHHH

[10] = biological target: T3, Zinc finger protein mex-5 (Caenorhabditis elegans, UniProt Q9XUB2); assay: potency of MEX-5 RNA-binding blockers – biochemical, C. elegans, fluorescence polarization, dose response (AID 1960)
T3 sequence (Q9XUB2 whole entry): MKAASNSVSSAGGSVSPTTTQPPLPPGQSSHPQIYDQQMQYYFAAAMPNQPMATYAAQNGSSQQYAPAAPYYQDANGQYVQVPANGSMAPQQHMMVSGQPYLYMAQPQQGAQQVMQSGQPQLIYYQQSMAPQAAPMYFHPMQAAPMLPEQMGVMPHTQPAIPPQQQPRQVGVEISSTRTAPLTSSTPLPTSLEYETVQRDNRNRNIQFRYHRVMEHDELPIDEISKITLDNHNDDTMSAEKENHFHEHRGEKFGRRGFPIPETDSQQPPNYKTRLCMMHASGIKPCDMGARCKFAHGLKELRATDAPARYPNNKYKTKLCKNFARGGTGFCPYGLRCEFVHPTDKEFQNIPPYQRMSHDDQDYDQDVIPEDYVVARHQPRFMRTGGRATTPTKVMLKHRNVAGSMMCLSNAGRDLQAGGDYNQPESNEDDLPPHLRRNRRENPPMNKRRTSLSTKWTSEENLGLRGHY

H4 = assay: Luminescence Cell-Based Dose Response HTS to Identify Activators of 5'UTR Stem-Loop Driven Prion Protein mRNA Translation in H4 Neuroglioblastoma Cells. [Related pubchem assays: 1829 (Project Summary), 1814 (Primary HTS)]; format: functional; conditions: Homo sapiens
[11] = Luminescence Cell-Based Dose Response HTS to Identify Activators of Luciferase Translation or Activity in H4 […] Cells. [Related pubchem assays: 1829 (Project Summary), 1814 (Primary HTS)]; format: functional
[12] = biological target: T4, Rac GTPase-activating protein 1 (Homo sapiens, UniProt Q9H0H5); assay: blockers of MgcRacGAP-driven Rac1 GTP hydrolysis – biochemical, ADP Hunter fluorescence, primary and confirmatory, confirmation (AID 624330); format: functional
T4 sequence (Q9H0H5 whole entry): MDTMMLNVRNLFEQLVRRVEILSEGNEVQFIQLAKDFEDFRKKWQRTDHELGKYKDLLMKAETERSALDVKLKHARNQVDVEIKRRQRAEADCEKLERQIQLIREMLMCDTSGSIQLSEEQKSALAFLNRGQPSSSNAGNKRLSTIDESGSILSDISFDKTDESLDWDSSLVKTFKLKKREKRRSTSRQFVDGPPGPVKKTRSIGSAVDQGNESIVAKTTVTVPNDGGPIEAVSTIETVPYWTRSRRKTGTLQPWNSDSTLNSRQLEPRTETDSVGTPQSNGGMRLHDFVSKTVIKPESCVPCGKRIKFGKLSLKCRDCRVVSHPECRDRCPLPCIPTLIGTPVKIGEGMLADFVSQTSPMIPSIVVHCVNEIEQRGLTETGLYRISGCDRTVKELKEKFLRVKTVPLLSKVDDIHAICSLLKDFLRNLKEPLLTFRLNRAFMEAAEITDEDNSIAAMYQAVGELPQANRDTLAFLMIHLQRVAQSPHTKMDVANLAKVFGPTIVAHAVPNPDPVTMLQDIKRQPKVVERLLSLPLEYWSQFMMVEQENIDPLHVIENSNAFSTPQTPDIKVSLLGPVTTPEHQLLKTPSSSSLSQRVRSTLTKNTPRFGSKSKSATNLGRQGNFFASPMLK

[13] = biological target: FAD-linked sulfhydryl oxidase ALR (Homo sapiens, UniProt P55789); assay: ALR-catalysed DTT oxidation blockers – biochemical, H2O2 detection, luminescence, cherry-pick, dose response (AID 493248)
Cytochrome P450 3A4 = Cytochrome P450 3A4 (Homo sapiens, UniProt P08684);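 note: CYP3A4 tested as one member of a cytochrome P450 panel screen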
Cytochrome P450 3A4, sequence (P08684 whole entry): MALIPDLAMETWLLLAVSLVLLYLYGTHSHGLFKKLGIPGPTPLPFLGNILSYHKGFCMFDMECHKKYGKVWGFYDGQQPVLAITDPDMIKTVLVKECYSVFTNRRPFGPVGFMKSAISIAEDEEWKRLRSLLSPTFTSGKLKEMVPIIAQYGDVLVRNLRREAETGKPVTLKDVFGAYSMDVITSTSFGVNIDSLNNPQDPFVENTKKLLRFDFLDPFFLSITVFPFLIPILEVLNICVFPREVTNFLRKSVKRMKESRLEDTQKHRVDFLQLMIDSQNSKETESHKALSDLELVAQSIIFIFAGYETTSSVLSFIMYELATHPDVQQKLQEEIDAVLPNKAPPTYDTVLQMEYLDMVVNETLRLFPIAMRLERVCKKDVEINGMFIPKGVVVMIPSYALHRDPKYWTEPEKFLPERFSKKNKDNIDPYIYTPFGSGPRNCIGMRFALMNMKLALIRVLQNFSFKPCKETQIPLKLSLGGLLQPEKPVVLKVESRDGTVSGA

Luciferin 4-monooxygenase, sequence (P08659 whole entry): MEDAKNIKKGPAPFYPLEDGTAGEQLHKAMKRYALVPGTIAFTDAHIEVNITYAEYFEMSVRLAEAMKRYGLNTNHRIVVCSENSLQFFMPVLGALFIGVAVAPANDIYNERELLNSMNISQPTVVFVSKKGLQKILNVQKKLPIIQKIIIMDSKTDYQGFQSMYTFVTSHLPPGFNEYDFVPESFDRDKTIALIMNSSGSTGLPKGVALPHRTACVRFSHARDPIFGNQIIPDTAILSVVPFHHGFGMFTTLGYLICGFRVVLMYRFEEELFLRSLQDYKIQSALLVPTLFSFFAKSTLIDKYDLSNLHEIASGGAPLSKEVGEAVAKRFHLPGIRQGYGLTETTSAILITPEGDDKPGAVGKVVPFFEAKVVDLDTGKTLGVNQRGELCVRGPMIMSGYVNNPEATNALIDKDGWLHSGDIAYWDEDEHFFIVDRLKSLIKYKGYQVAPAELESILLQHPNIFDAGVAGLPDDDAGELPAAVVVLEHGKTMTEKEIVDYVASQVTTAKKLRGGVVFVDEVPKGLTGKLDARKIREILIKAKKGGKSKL
FAD-linked sulfhydryl oxidase ALR, sequence (P55789 whole entry): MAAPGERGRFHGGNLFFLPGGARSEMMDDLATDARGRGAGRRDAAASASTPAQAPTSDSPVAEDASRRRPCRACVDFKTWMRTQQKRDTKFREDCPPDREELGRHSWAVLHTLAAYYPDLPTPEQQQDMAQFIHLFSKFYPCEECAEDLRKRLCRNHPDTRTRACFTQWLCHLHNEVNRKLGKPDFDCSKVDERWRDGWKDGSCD
Cytochrome P450 2C9, sequence (P11712 whole entry): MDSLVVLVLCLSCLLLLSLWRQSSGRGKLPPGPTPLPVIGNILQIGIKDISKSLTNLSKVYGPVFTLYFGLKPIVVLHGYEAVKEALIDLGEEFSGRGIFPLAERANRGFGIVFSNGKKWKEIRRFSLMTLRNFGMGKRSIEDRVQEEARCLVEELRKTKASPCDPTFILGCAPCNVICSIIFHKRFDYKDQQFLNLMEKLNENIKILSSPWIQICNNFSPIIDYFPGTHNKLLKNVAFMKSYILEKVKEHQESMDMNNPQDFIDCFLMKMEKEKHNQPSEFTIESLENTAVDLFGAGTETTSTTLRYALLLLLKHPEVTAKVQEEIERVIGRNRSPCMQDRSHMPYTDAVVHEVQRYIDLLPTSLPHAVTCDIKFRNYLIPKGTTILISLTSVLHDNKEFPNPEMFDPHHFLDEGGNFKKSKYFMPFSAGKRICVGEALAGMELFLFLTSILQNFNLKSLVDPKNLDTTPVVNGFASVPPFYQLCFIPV

SMILES: CC1CCCCN1S(=O)(=O)c1ccc(S(=O)(=O)N(CC(=O)Nc2ccccc2)Cc2cccs2)cc1 (stereo unspecified)
- EC50 [1]: > 60 µM (inconclusive)
- EC50 [2]: > 112 µM (not active)
- EC50 [3]: 1.7 µM (active)
- EC50 [4]: > 112 µM (not active)

SMILES: CC(C)(C)Nc1nc(N2CCCC2)nc(N2CCCC2)n1
- AC50 (Cytochrome P450 2C9): 5.01 µM (inconclusive)
- EC50 [5]: 16.7 µM (active)
- EC50 [6]: 16.7 µM (active)
- EC50 [7]: 19.6 µM (active)

SMILES: CC(=O)N1N=C2C3CCN(CC3)C2C1c1cccc2ccccc12 (stereo unspecified)
- EC50 [8]: > 53 µM (inactive)

SMILES: CCOC(=O)c1ccc(-n2c(CCC(=O)O)ccc2-c2ccccc2)cc1
- EC50 [9]: > 300 µM (not active)
- EC50 [10]: > 300 µM (not active)

SMILES: O=C(c1ccc(Cl)s1)N1CCc2ccccc21
- EC50 (H4): 56.2 µM (inconclusive)
- EC50 [11]: 0.124 µM (active)

SMILES: CC(C)Oc1ccc(N2CC(C(=O)Nc3ccc(N4CCOCC4)cc3)CC2=O)cc1 (stereo unspecified)
- EC50 [2]: > 112 µM (not active)
- EC50 [4]: > 112 µM (not active)

SMILES: CNc1nc2c3ccccc3n(C(C)=O)c2s1
- EC50 [2]: > 112 µM (not active)
- IC50 [12]: 184 µM (active)
- EC50 [4]: > 112 µM (not active)

SMILES: CC(=O)Nc1ccc2nc(NC(=O)c3cccs3)sc2c1
- EC50 [2]: 2.26 µM (active)
- EC50 [4]: 6.27 µM (active)

SMILES: CCN(CC)c1ccc(NC(=O)CN2CCN(c3nc(C)cc(C)n3)CC2)cc1
- AC50 [13]: 1.03 µM (active)

SMILES: C[C@@H](Cc1ccccc1)Nc1ncnc2c1ncn2[C@@H]1O[C@@H](CO)[C@H](O)[C@@H]1O
- AC50 (Cytochrome P450 3A4): 10 µM (inconclusive)

SMILES: Cc1[nH]cnc1C(=O)N/N=C/c1c(Cl)cccc1Cl
- EC50 [2]: 4.22 µM (active)
- EC50 [4]: 1.54 µM (active)

SMILES: Oc1c(/C=N/c2ccccc2Cl)[nH]c2ccccc12
- EC50 [9]: > 300 µM (not active)
- EC50 [10]: > 300 µM (not active)

SMILES: Cc1c(Cl)ccc2sc(NC(=O)C3CC3)nc12
- EC50 [2]: > 112 µM (not active)
- EC50 [4]: > 112 µM (not active)

SMILES: COc1ccc(N2CCN(C(=O)CCNC(=O)c3ccc(C(C)(C)C)cc3)CC2)cc1
- AC50 [13]: 10.1 µM (active)

SMILES: COc1cc(OC)cc(C(=O)Nc2ccc(S(=O)(=O)Nc3cc(C)nc(C)n3)cc2)c1
- AC50 [13]: 1.68 µM (active)

SMILES: Cc1nc2cc(-c3cccc(F)c3)nn2c(C)c1CCC(=O)N1CCN(c2ccccn2)CC1
- EC50 [5]: 11.9 µM (active)
- EC50 [6]: 12.4 µM (active)
- EC50 [7]: 14.1 µM (active)

SMILES: Oc1ccccc1-c1nnc(S)n1Cc1ccco1
- AC50 [13]: 4.75 µM (active)

SMILES: COC(=O)[C@H](N)Cc1ccc(Cl)cc1
- AC50 (Cytochrome P450 3A4): 31.6 µM (inconclusive)

SMILES: CC1CCN(C(=S)c2ccc(N(C)C)cc2)CC1
- AC50 [13]: 0.915 µM (active)
